Data set [1] can be described thus: Inhibition of beta-hematin formation assessed as reduction in acetate buffer-initiated hemozoin formation measured after 48 hrs. Details: concentration or dose not given beside the values. The settings on record: concentration not given here.
In data set [2] the test system is Plasmodium berghei. Description: Antimalarial activity against chloroquine-susceptible Plasmodium berghei ANKA infected in Balb-C mouse assessed as parasitemia at 10 mg/kg, ip administered once daily for 4 days measured post last dose by Giemsa staining based method (reference value: 65.8 +/- 4.38%). Format: functional.
The subject of data set [3] is Plasmodium berghei. Description: Antimalarial activity against chloroquine-susceptible Plasmodium berghei ANKA infected in Balb-C mouse assessed as mean survival days at 10 mg/kg, ip administered once daily for 4 days (reference value: 8.4 +/- 0.15 day). Format: functional.
A further data set relates to Lymphocyte. Description: Cytotoxicity against human lymphocytes after 24 to 48 hrs by MTT assay. Format: cell-based. A general note: Tetrazolium assays rely on reduction of a dye to a coloured formazan, in cell work by metabolically active cells.
Data set [4] concerns Jurkat E6.1. Description: Cytotoxicity against human Jurkat E6-1 cells after 24 hrs by MTT assay. Format: functional, cell-based. The settings on record: Jurkat E6.1, 24 h.
Data set [5] relates to HL-60. The data set can be described thus: Cytotoxicity against human HL60 cells after 24 hrs by MTT assay. Format: functional, cell-based. The settings on record: HL-60, 24 h.
Data set [6] can be described thus: Selectivity index, ratio of IC50 for human lymphocytes to IC50 for human Jurkat E6-1 cells. Format: toxicity. Particulars: human lymphocytes versus Jurkat E6-1 cells, read-out: Ratio IC50.
Data set [7] can be described thus: Selectivity index, ratio of IC50 for human lymphocytes to IC50 for human HL60 cells. Format: toxicity. Particulars: human lymphocytes versus HL60 cells, read-out: Ratio IC50.
A short description of data set [8]: Safety index, ratio of test compound IC50 to doxorubicin IC50 for human lymphocytes. Format: ADME, cell-based, Lymphocyte. Particulars: read-out: Ratio IC50.
Data set [9] deals with Jurkat E6.1. Description: Induction of apoptosis in human Jurkat E6-1 cells assessed as necrotic cells at 5 uM after 24 hrs by Annexin-V-FITC/propidium iodide staining based flow cytometric analysis (reference value: 1.26 +/- 0.24 %). Format: functional.
Data set [10] has as its system Jurkat E6.1. The data set can be described thus: Induction of apoptosis in human Jurkat E6-1 cells assessed as late apoptotic cells at 5 uM after 24 hrs by Annexin-V-FITC/propidium iodide staining based flow cytometric analysis (reference value: 0.73 +/- 0.14 %). Format: functional.
Data set [11] concerns Jurkat E6.1. Description: Induction of apoptosis in human Jurkat E6-1 cells assessed as early apoptotic cells at 5 uM after 24 hrs by Annexin-V-FITC/propidium iodide staining based flow cytometric analysis (reference value: 0.5 +/- 0.07 %). Format: functional. In general terms: Flow cytometry measures light scatter and fluorescence of single cells or particles in a stream.

The test system of data set [12] is HL-60. Description: Induction of apoptosis in human HL60 cells assessed as necrotic cells at 5 uM after 24 hrs by Annexin-V-FITC/propidium iodide staining based flow cytometric analysis (reference value: 1.96 +/- 0.33 %). Format: functional.
Data set [13] concerns HL-60. The data set can be described thus: Induction of apoptosis in human HL60 cells assessed as late apoptotic cells at 5 uM after 24 hrs by Annexin-V-FITC/propidium iodide staining based flow cytometric analysis (reference value: 0.85 +/- 0.13 %). Format: functional.
The test system of data set [14] is HL-60. The data set can be described thus: Induction of apoptosis in human HL60 cells assessed as early apoptotic cells at 5 uM after 24 hrs by Annexin-V-FITC/propidium iodide staining based flow cytometric analysis (reference value: 0.36 +/- 0.02 %). Format: functional.
Data set [15] deals with Mus musculus. Description: Toxicity in Balb-C mouse infected with chloroquine-susceptible Plasmodium berghei ANKA assessed as survival at 20 mg/kg, ip administered once daily for 4 days measured at 30 days post infection. Format: organism-based. Particulars: in vivo, 720 h.
Data set [16] concerns Mus musculus. Description: Toxicity in Balb-C mouse infected with chloroquine-susceptible Plasmodium berghei ANKA assessed as effect on body weight at 20 mg/kg, ip administered once daily for 4 days measured at 30 days post infection. Format: organism-based. Particulars: in vivo, 720 h.
A further data set concerns Jurkat. Description: Cytotoxicity against human Jurkat cells after 20 hrs by propidium iodide staining based flow cytometry. Format: functional, cell-based.
In data set [17] the test system is Jurkat E6.1. The data set can be described thus: Induction of apoptosis in human Jurkat E6-1 cells assessed as necrotic cells at 100 uM after 24 hrs by Annexin-V-FITC/propidium iodide staining based flow cytometric analysis (reference value: 1.26 +/- 0.24 %). Format: functional.
Data set [18] deals with Jurkat E6.1. The data set can be described thus: Induction of apoptosis in human Jurkat E6-1 cells assessed as late apoptotic cells at 100 uM after 24 hrs by Annexin-V-FITC/propidium iodide staining based flow cytometric analysis (reference value: 0.73 +/- 0.14 %). Format: functional.
Data set [19] concerns Jurkat E6.1. The data set can be described thus: Induction of apoptosis in human Jurkat E6-1 cells assessed as early apoptotic cells at 100 uM after 24 hrs by Annexin-V-FITC/propidium iodide staining based flow cytometric analysis (reference value: 0.5 +/- 0.07 %). Format: functional.
Data set [20] concerns HL-60. Description: Induction of apoptosis in human HL60 cells assessed as necrotic cells at 100 uM after 24 hrs by Annexin-V-FITC/propidium iodide staining based flow cytometric analysis (reference value: 1.96 +/- 0.33 %). Format: functional.
For data set [21], the system named is HL-60. Description: Induction of apoptosis in human HL60 cells assessed as late apoptotic cells at 100 uM after 24 hrs by Annexin-V-FITC/propidium iodide staining based flow cytometric analysis (reference value: 0.85 +/- 0.13 %). Format: functional.
Data set [22] relates to HL-60. Description: Induction of apoptosis in human HL60 cells assessed as early apoptotic cells at 100 uM after 24 hrs by Annexin-V-FITC/propidium iodide staining based flow cytometric analysis (reference value: 0.36 +/- 0.02 %). Format: functional.

Structures are written as SMILES.

By inhibition is commonly meant the relative decrease from the control value, in per cent. As usually defined, the IC50 is the concentration that inhibits the measured activity by half.

Consider `COC(=O)/C(=C\c1ccc(OC(=O)c2ccc(OC)c(OC)c2OC)cc1)Sc1ccnc2cc(Cl)ccc12`, for which, in data set [1], the inhibition was 85.1%. Besides, the Activity in the data set on Plasmodium berghei [2] is reported as 1%; with Jurkat E6.1 [9], 55.6%; with Jurkat E6.1 [10], 4.12%; in the data set with Jurkat E6.1 [11] it was 0.58%; in the data set on HL-60 [12], 62.1%; in the data set on HL-60 [13] it was 7.38%. Moreover, the values for the Activity with HL-60 [14], in the data set on Mus musculus [15] and in the data set on Mus musculus [16] were 0.75%, “Non-Toxic” and “Non-Toxic”, respectively. Moreover, the MSD in the data set with Plasmodium berghei [3] is 29.83 days. For the same compound, the figures for the IC50 in the data set with Lymphocyte, with Jurkat E6.1 [4] and in the data set on HL-60 [5] were 22.4 µM, 2.41 µM and 2.08 µM, respectively. Besides, the selectivity ratio in [6] was found to be 9.27; in data set [7], 10.8; in data set [8], 5.1.

In the case of `CCN(CC)CCCC(C)Nc1ccnc2cc(Cl)ccc12` (stereo not given) [CHLOROQUINE], the concentration for half-maximal inhibition (IC50) is 95 µM with Jurkat, over 100 µM in the data set with Lymphocyte, 83.6 µM with Jurkat E6.1 [4] and over 100 µM in the data set with HL-60 [5]. Besides, the inhibition in [1] stood at 98.5%. The Activity in the data set with Plasmodium berghei [2] came to 0.8%; in the data set on Jurkat E6.1 [17], 23.7%; in the data set on Jurkat E6.1 [18], 7.85%; in the data set on Jurkat E6.1 [19] it was 1.4%; in the data set with HL-60 [20] it was 23.6%; in the data set with HL-60 [21], 2.14%. Besides, the Activity in the data set on HL-60 [22] is on record as 0.66%. Moreover, the MSD in the data set with Plasmodium berghei [3] came to 29.98 days.

These data come from ChEMBL document CHEMBL4184243, “Optimization of antimalarial, and anticancer activities of (E)-methyl 2-(7-chloroquinolin-4-ylthio)-3-(4-hydroxyphenyl) acrylate” (Bioorg Med Chem, 2018).
